Results as given in article PMC6263107 (Journal of Enzyme Inhibition and Medicinal Chemistry, 2018).
Where “and” joins values, the source holds several entries; their conditions need not be identical. Identical values can stand only once. Like-named read-outs stand apart in the source and are kept apart here.

Assays:
in vitro = type: cell-based; details: human, HepG2 cells, percent of cell viability vs DMSO-treated control, read-out: HepG2 cell viability
Method: (§1) The culture medium was refreshed after 24 h of incubation and 100 µl of six different concentrations (1–1000 µM) of test compounds or DMSO (0.1%) were then added. The cell viability was monitored by colourimetric assay with 3-[4,5-dimethylthiazol-2-yl]-2,5-diphenyl-tetrazolium bromide (MTT).
(§2) In this sense, all new KTs were submitted to the in vitro cell viability test (MTT assay) using human hepatocellular carcinoma cell line (HepG2)[26], as the most accepted probe to evaluate hepatotoxic effects. For this experiment, six different concentrations from 1 to 1000 µM were used.

[1] = Oxygen radical absorbance capacity assay (ORAC-FL); details: ORAC-FL, Trolox equivalents
Method: The antioxidant activity of KTs was determined using the ORAC-FL method described by Dávalos et al.[30] using fluorescein as a fluorescent probe with minor modification. Briefly, fluorescein and antioxidant were incubated in a black 96-well microplate (Nunc) for 15 min at 37 °C. The 2,2’-azobis(amidinopropane) dihydrochloride (AAPH) was then added quickly using the built-in injector of Varioskan Flash plate reader (Thermo Scientific).
Results are expressed in the Trolox equivalents (TE) unit in relation to radical scavenging properties of Trolox.

EeAChE = EeAChE (Electrophorus electricus, UniProt O42275); test: biochemical; details: mean ± SEM
EeAChE, sequence (O42275 24-633): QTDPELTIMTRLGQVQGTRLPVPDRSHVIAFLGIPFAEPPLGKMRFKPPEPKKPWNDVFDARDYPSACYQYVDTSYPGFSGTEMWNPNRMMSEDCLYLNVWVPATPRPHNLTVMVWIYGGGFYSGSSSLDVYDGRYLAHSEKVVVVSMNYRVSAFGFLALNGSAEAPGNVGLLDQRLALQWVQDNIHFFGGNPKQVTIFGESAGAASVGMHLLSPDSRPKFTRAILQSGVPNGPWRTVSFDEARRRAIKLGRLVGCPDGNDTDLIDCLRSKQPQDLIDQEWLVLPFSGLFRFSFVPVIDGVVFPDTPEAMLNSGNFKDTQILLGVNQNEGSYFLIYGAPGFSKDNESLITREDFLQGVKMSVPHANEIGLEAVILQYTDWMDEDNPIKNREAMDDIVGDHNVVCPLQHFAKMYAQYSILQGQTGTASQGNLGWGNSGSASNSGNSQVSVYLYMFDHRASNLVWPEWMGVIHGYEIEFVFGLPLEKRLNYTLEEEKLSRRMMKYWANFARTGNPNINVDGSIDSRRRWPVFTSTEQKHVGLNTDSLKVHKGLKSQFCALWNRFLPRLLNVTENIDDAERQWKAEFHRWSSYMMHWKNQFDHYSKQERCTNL
Method: (§3) Ellman’s protocol was followed to perform the anticholinesterasic activity. Briefly, the reaction was carried out in a final volume of 3 ml of a phosphate-buffered solution (0.1 M) at pH =8.0 containing (2.625 µl, 0.35 mM) of 5,5’-dithiobis-2-nitrobenzoic acid (DTNB), 40 µl 1% w/v Bovine Albumin Serum phosphate-buffered solution (BSA), (29 µl, 0.035 U/ml) of EeAChE or (60 µl, 0.05 U/ml) of eqBuChE, and 3 µl of tested compound, which were incubated for 10 min. Then, the acetylthiocholine iodide or butyrylthiocholine was added, and the reaction was incubated for additional 15 min. The activity in absence of compound was used as control.

eqBuChE = biological target: T1, eqBuChE (Equus caballus, UniProt P81908); test: biochemical; details: for inhibition at 10 µM: Table 2 footnote b; for IC50: mean ± SEM
T1 construct: serum horse BuChE (eqBuChE); from tissue; host or cells: horse serum
T1 sequence (P81908 whole entry): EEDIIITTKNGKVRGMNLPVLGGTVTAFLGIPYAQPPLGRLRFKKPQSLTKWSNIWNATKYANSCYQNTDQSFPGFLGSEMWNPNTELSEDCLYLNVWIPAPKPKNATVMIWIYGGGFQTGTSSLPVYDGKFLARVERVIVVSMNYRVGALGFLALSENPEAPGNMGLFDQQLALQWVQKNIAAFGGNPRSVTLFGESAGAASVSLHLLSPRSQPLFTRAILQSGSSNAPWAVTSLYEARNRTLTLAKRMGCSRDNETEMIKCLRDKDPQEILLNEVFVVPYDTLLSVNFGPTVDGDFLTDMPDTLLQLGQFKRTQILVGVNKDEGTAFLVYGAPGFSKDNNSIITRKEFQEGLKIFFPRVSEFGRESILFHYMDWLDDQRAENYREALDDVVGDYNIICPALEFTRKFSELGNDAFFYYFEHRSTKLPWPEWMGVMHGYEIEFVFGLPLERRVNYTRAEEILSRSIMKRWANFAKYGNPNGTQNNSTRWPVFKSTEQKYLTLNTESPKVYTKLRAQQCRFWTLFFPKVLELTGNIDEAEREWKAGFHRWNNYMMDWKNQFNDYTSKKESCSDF
Method: as §3

SH-SY5Y cells [2] = test: Neuroprotection against Aβ1–40 peptide-induced cell death (MTT); type: cell-based, human; details: for Aβ1–40 (%) neuroprotection: Aβ 1–40 30 µM
Method: (§4) SH-SY5Y cell culture and treatment with compounds 2b–d and 2f. The cultures of human SH-SY5Y neuroblastoma cells kept under a CO2/air (5%/95%) humidified atmosphere at 37 °C for 24 h were treated with 100 µl of the test compounds or DMSO (0.1%) in DMEM/F12 (1:1) medium supplemented with 1% fetal bovine serum, 1X non-essential amino acids, 100 units/ml penicillin and 10 mg/ml streptomycin. Treatment medium was renewed every day for up to 48 h of treatment. MTT assay was then performed.
(§5) SH-SY5Y cells were seeded in 96-well culture plates at a density of 8 × 10^4 cells per well in DMEM/F12 (1:1) medium supplemented with 10% fetal bovine serum, 1X non-essential amino acids, 100 units/mL penicillin and 10 mg/mL streptomycin (Dutscher, France). After 24 h of incubation, the cultures were treated with 100 µl of the test compounds or DMSO (0.1%) in the same medium. Following 24 h, the cells were co-incubated with oligomycin A (10 µM)/rotenone (30 µM) (Sigma, France) or Aβ 1–40 (30 µM) with or without the tested compounds 2b–d and 2f at nontoxic concentrations against cells for an additional period of 24 h. MTT assay was then performed to determine the % of cell viability.
(§6) The ability to prevent the human neuroblastoma cell line SH-SY5Y cell death induced by toxic insults such as Αβ 1–40, implicated in ROS production and apoptosis-related signalling pathways, and oligomycin/rotenone (O/R)[39], was then assayed to determine the neuroprotective capacity of the four less hepatotoxic KTs 2b–d and 2f at nontoxic concentration against SH-SY5Y 3 and 10 µM, using melatonin and KA as reference molecules. For the evaluation of the neuroprotective effect, the cytotoxicity of O/R (10 µM/30 µM) on SH-SY5Y cell viability was determined as well as the toxicity of the selected KTs 2b–d and 2f at.

SH-SY5Y cells [3] = test: Neuroprotection against oligomycin/rotenone-induced cell death (MTT); type: cell-based, human; details: O 10 µM / R 30 µM
Method: as §4, §5, §6

hAChE = biological target: T2, hAChE (Homo sapiens, UniProt P22303); test: biochemical; details: for inhibition at 10 µM: Table 2 footnote b
T2 construct: 10 µl of cholinesterase obtained from human erythrocyte hemolyzate, out of blood samples; from tissue; host or cells: human erythrocyte hemolysate from blood samples
T2 sequence (P22303 32-617 isoform P22303-2 limits assumed): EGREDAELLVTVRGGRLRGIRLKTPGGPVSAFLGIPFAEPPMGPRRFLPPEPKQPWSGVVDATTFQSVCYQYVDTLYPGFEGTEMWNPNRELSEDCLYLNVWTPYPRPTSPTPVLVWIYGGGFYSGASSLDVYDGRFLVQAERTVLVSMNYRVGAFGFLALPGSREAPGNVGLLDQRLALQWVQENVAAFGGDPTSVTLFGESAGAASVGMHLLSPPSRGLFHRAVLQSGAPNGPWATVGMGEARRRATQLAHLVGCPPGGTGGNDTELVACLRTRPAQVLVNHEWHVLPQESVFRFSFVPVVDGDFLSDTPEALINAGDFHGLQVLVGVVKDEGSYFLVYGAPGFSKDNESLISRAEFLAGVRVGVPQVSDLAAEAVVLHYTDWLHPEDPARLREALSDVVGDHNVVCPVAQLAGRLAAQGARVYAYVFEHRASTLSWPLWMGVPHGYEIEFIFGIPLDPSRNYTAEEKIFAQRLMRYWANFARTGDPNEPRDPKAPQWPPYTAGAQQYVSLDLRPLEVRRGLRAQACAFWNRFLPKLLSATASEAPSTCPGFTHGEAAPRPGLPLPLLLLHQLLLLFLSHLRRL
Method: This blend was preincubated for 5 min and 20 µl of 0.01 M substrate (ATCh or BTCh) was added to initiate the reaction. […] The IC50 values are expressed as a mean ± SEM.
Next, as planned at the beginning of the project, the analysis of the antioxidant capacity of KT 2a–d, 2f–h, and 2l was carried out.

HepG2 cells = test: in vitro; type: cell-based; details: concentrations up to 1000 µM
Method: as §1, §2

SH-SY5Y cells [4] = test system: SH-SY5Y cells; set-up: method as in PMID 27736061; details: O 10 µM / R 30 µM, cited from earlier work
SH-SY5Y cells [5] = test system: SH-SY5Y cells; set-up: method as in PMID 27736061; details: Aβ 1–40 30 µM, cited from earlier work

Row | SMILES | viability at 1 µM (in vitro) [%] | viability at 3 µM (in vitro) [%] | viability at 10 µM (in vitro) [%] | viability at 30 µM (in vitro) [%] | viability at 100 µM (in vitro) [%] | viability at 300 µM (in vitro) [%] | viability at 1000 µM (in vitro) [%] | ORAC [1] | IC50 (EeAChE) [µM] | IC50 (eqBuChE) [µM] | other results
1 | Nc1c2c(nc3c1C(c1c(Cl)cccc1Cl)c1oc(CO)cc(=O)c1O3)CCCC2 (centres unmarked) [KT2l] | 99.9 ± 2.7 | 102 ± 2.3 | 102 ± 2.6 | 99.9 ± 3.2 | 88.9 ± 8 | 68.3 ± 9.3 | 50.5 ± 7.5 | 6.14±0.40 TE and 6.14 TE | 2.12 ± 0.09 | – | inhibition at 10 µM (eqBuChE): < 50%
2 | Nc1c2c(nc3c1C(c1ccccc1F)c1oc(CO)cc(=O)c1O3)CCCC2 (centres unmarked) [KT2f] | 108 ± 6.2 | 96.1 ± 2.5 | 99.2 ± 2.8 | 102 ± 7.1 | 101 ± 9.2 | 95.3 ± 4.1 | 64 ± 8 | 3.85±0.42 TE | 2.11 ± 0.01 | 6.69 ± 0.1 | Aβ1–40 (%) neuroprotection (SH-SY5Y cells [2]; compound 3 µM): 25.10 ± 0.06 %; Aβ1–40 (%) neuroprotection (SH-SY5Y cells [2]; compound 10 µM): 4.1 ± 0.04%; O/R (%) neuroprotection (SH-SY5Y cells [3]; compound 3 µM): 16.50 ± 0.07%; O/R (%) neuroprotection (SH-SY5Y cells [3]; compound 10 µM): np; inhibition at 10 µM (hAChE): < 50%
3 | Nc1c2c(nc3c1C(c1ccccc1)c1oc(CO)cc(=O)c1O3)CCCC2 (centres unmarked) [KT2a] | 96.8 ± 1 | 94.9 ± 2.9 | 99.3 ± 1.7 | 105 ± 5.3 | 108 ± 5 | 95 ± 3.4 | 50.3 ± 5.7 | 2.58±0.22 TE and 2.58 TE | 3.3 ± 0.09 | 12.15 ± 0.09 | inhibition at 10 µM (hAChE): < 50%
4 | Nc1c2c(nc3c1C(c1ccc(F)cc1)c1oc(CO)cc(=O)c1O3)CCCC2 (centres unmarked) [KT2h] | 97.4 ± 2.3 | 95.9 ± 3.8 | 100 ± 1.5 | 101.4 ± 0.6 | 102 ± 1.8 | 87.2 ± 6.7 | 55.3 ± 6 | 4.69±0.18 TE | 3.44 ± 0.04 | – | inhibition at 10 µM (eqBuChE): < 50%
5 | Nc1c2c(nc3c1C(c1cccc(Br)c1)c1oc(CO)cc(=O)c1O3)CCCC2 (centres unmarked) [KT2k] | 101 ± 4.8 | 104 ± 8.9 | 94.9 ± 2.6 | 95.8 ± 2.5 | 101 ± 3.1 | 60.1 ± 10.4 | 37.2 ± 5.9 | 2.61±0.11 TE | 0.74 ± 0.08 | 3.9 ± 0.09 | –
6 | Cc1ccc(C2c3oc(CO)cc(=O)c3Oc3nc4c(c(N)c32)CCCC4)cc1 (centres unmarked) [KT2b] | 105 ± 3.1 | 110 ± 3.2 | 105 ± 1.9 | 107 ± 2.9 | 113 ± 8.4 | 108 ± 5.7 | 87.9 ± 5.2 | 2.96±0.18 TE | 1.4 | 10.09 ± 0.09 | Aβ1–40 (%) neuroprotection (SH-SY5Y cells [2]; compound 3 µM): 27.85 ± 0.15 %; Aβ1–40 (%) neuroprotection (SH-SY5Y cells [2]; compound 10 µM): np; neuroprotective activity (SH-SY5Y cells [2]; on any of the toxic insults investigated (O/R, Aβ 1–40)): very poor neuroprotective activity; HepG2 toxicity (HepG2 cells): no significant toxicity; O/R (%) neuroprotection (SH-SY5Y cells [3]; compound 3 µM): 19.66 ± 0.07%; O/R (%) neuroprotection (SH-SY5Y cells [3]; compound 10 µM): 3.65 ± 0.07%; IC50 (hAChE; mean ± SEM): 13.7 ± 1.7 µM
7 | COc1ccc2[nH]cc(CCNC(C)=O)c2c1 [Melatonin, melatonin] | – | – | – | – | – | – | – | – | – | – | O/R (%) neuroprotection (SH-SY5Y cells [4]; compound 1 µM): 50.1 ± 3.42 %; O/R (%) neuroprotection (SH-SY5Y cells [4]; compound 3 µM): 59.1 ± 4.50 %; Aβ1–40 (%) neuroprotection (SH-SY5Y cells [5]; compound 1 µM): 35.5 ± 4.1 %; Aβ1–40 (%) neuroprotection (SH-SY5Y cells [5]; compound 3 µM): 60.2 ± 3.57 %
